Numbered stars: 1 amine (or outer) side, 2 acyl side, 3 side chain; on linkers, the order of the positions; unused ones are H or OH. Bridge positions count the residues as written; N and C are the ends. Square brackets hold non-standard residues; d marks the D form. Peptide text beside a SMILES is read from it. X6 = CC(=O)Oc1ccc2c(c1)CN([*:1])[C@H](C(=O)[*:2])C2; Trp(7-aza) = N[C@@H](Cc1c[nH]c2ncccc12)C(=O)O; X5 = O=C([C@H](Cc1cnco1)N[*:1])[*:2]; mXylylene = c1cc(C[*:1])cc(C[*:2])c1; 4Pal = N[C@@H](Cc1ccncc1)C(=O)O; Aad = N[C@@H](CCCC(=O)O)C(=O)O; Tle = CC(C)(C)[C@H](N)C(=O)O; αMeV = CC(C)[C@](C)(N)C(=O)O; Nva = CCC[C@H](N)C(=O)O; Thp = NC1(C(=O)O)CCOCC1; Aib = CC(C)(N)C(=O)O; Mpa = O=C(O)CCS

Assay [1] addresses human PCSK9 / human LDLR EGFa domain interaction (Homo sapiens, UniProt Q8NBP7). The experiment in a line: TR-FRET assay of inhibition of the PCSK9-LDLR protein-protein interaction. Type of assay: binding. To be noted: 20 nM avitag-biotinylated human PCSK9, 20 nM his-tagged human LDLR EGFa domain, 2 hours, room temperature. Put shortly:
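20 nM biotin-avitag PCSK9 + 20 nM His-LDLR EGFa; 5 nM Ulight-SA / 5 nM Eu-anti-His; 2 h RT; HEPES 50 mM, NaCl 150 mM, CaCl2 5 mM, 0.01% BSA, 0.01% P20. Half-maximal inhibition, 4-parameter fit.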
A general note: In TR-FRET formats the signal depends on donor and acceptor labels being close together.

Another assay addresses PCSK9 (Homo sapiens, UniProt Q8NBP7). The assay can be described thus: PCSK9 Alexa FRET Standard assay (displacement of AlexaFluor647 tagged cyclic peptide Reagent A). Type of assay: binding. To be noted: 0.5 nM PCSK9, 20 nM AF cyclic peptide Reagent A. How it is done:
A solution containing 1 nM biotinylated PCSK9+2.5 nM Lance Streptavidin Europium (Strep-Eu) was made in 50 mM HEPES pH 7.4, 0.15 M NaCl, 5 mM CaCl2), 0.01% BSA, and 0.01% Surfactant P20. A separate solution containing 40 nM of the AlexaFluor tagged cyclic peptide was made in the same buffer system. An Echo was used to transfer 0.750 ul of compound to an assay plate followed by the addition of 15 ul of PCSK9+Stept-Eu and 15 ul of AF peptide. The final assay volume was 30.750 ul containing 0.5 nM PCSK9, 1.25 nM Strep-Eu, and 20 nM AF cyclic peptide. The reaction was incubated at room temperature for at least two hours prior to fluorescence measurements using an Envision Multilabel Reader. IC50 values were determined by fitting data to a sigmoidal dose-response curve using nonlinear regression. Ki was then calculated from the IC50 and the KD of AF cyclic peptide. Counts (B-counts) of the europium-labeled PCSK9 were followed to observe if compounds were […]. A fall off of the B-counts likely indicated a false positive of inhibition. Data from this procedure was reported as “A=‘numerical value’ (nanomolar)”

Sequence of human PCSK9 / human LDLR EGFa domain interaction (Q8NBP7 153-692): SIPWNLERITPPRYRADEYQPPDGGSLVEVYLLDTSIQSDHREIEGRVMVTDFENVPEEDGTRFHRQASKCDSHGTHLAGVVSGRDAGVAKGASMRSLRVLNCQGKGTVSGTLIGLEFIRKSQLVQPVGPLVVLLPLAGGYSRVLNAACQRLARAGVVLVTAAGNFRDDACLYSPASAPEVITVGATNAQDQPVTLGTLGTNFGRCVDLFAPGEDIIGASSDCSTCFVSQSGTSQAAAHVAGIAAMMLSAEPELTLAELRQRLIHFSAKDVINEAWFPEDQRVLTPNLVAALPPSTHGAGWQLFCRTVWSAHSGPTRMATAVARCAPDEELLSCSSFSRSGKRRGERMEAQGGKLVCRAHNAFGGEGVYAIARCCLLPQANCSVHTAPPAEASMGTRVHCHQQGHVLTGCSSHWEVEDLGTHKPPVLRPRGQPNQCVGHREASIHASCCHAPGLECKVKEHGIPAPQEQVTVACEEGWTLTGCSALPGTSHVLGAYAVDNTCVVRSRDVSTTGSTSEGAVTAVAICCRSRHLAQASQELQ
Sequence of human PCSK9 / human LDLR EGFa domain interaction (Q8NBP7 31-152 partner limits assumed): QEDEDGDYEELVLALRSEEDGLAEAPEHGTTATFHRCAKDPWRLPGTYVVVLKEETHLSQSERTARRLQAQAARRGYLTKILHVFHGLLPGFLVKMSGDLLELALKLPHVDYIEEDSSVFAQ
Sequence of PCSK9 (Q8NBP7 153-692): as the sequence (Q8NBP7 153-692) above

On to `CCC[C@@H]1NC(=O)[C@H](Cc2c[nH]c3ncccc23)NC(=O)[C@H]([C@@H](C)O)NC(=O)[C@@H]2CCCN2C(=O)[C@H](Cc2ccc(O)cc2)NC(=O)[C@H](C(C)(C)C)NC(=O)[C@@H](NC(C)=O)CCCC(=O)NCCCC[C@@H](C(N)=O)NC(=O)[C@H]([C@@H](C)O)NC(=O)[C@H](CCC)NC(=O)[C@@H]2Cc3ccc(OC(C)=O)cc3CN2C(=O)[C@H](C)NC1=O` [Compound 074] (Ac-[Aad][Tle]YPT[Trp(7-aza)][Nva]A[X6][Nva]TK-NH2; lactam 1-12), for which the concentration for half-maximal inhibition (IC50) (in assay [1]; on PCSK9) was 0.1 to 1 µM throughout.
For `CCC[C@@H]1NC(=O)[C@H](Cc2c[nH]c3ncccc23)NC(=O)[C@H]([C@@H](C)O)NC(=O)[C@H](Cc2cnco2)NC(=O)[C@H](Cc2ccc(O)cc2)NC(=O)[C@H](C(C)(C)C)NC(=O)CCSCc2cccc(c2)CSC[C@@H](C(N)=O)NC(=O)[C@H]([C@@H](C)O)NC(=O)[C@H](CCC)NC(=O)[C@H](Cc2ccc(O)cc2)NC(=O)[C@H](CCC(=O)O)NC1=O` [Compound 106] ([Mpa][Tle]Y[X5]T[Trp(7-aza)][Nva]EY[Nva]TC-NH2; linker 1-12 via mXylylene), the IC50 – broadly, the concentration at which inhibition is half-maximal – was 0.1 to 1 µM in assay [1] and 1 to 21 µM on PCSK9.
On the same counts, the results for `CCC[C@@H]1NC(=O)[C@H](Cc2c[nH]c3ncccc23)NC(=O)[C@H]([C@@H](C)O)NC(=O)[C@H](Cc2ccncc2)NC(=O)[C@H](Cc2ccc(O)cc2)NC(=O)[C@H](C(C)(C)C)NC(=O)CCSCc2cccc(c2)CSC[C@@H](C(N)=O)NC(=O)[C@H]([C@@H](C)O)NC(=O)[C@H](CCC)NC(=O)[C@H](Cc2ccc(O)cc2)NC(=O)[C@H](CCC(=O)O)NC1=O` [Compound 112] ([Mpa][Tle]Y[4Pal]T[Trp(7-aza)][Nva]EY[Nva]TC-NH2; linker 1-12 via mXylylene) are 0.1 to 1 µM and 0.1 to 1 µM.
On the same counts, the results for `CCC[C@@H]1NC(=O)[C@H](Cc2c[nH]c3ncccc23)NC(=O)[C@H]([C@@H](C)O)NC(=O)[C@@H]2CCCN2C(=O)[C@H](Cc2ccc(O)cc2)NC(=O)[C@H](C(C)(C)C)NC(=O)CCSCc2cccc(c2)CSC[C@@H](C(N)=O)NC(=O)[C@H]([C@@H](C)O)NC(=O)[C@H](CCC)NC(=O)[C@H](Cc2ccc(O)cc2)NC(=O)[C@H](CCC(=O)O)NC1=O` [Compound 155] ([Mpa][Tle]YPT[Trp(7-aza)][Nva]EY[Nva]TC-NH2; linker 1-12 via mXylylene) are 1 to 21 µM and 1 to 21 µM.
On the same counts, the results for `CC(=O)N[C@H]1CSCc2cccc(c2)CSC[C@@H](C(N)=O)NC(=O)[C@H]([C@@H](C)O)NC(=O)C(C)(C)NC(=O)[C@H](Cc2ccc(O)cc2)NC(=O)[C@H](C)NC(=O)C(C)(C)NC(=O)[C@H](Cc2c[nH]c3ncccc23)NC(=O)[C@H]([C@@H](C)O)NC(=O)[C@@H]2CCCN2C(=O)[C@H](Cc2ccc(O)cc2)NC(=O)[C@H](C(C)(C)C)NC1=O` [Compound 179] (Ac-C[Tle]YPT[Trp(7-aza)][Aib]AY[Aib]TC-NH2; linker 1-12 via mXylylene) are 21 to 50 µM and 1 to 21 µM.
With `CC(=O)N[C@H]1CSCc2cccc(c2)CSC[C@@H](C(N)=O)NC(=O)[C@H]([C@@H](C)O)NC(=O)[C@](C)(C(C)C)NC(=O)[C@H](Cc2ccc(O)cc2)NC(=O)[C@H](C)NC(=O)C2(CCOCC2)NC(=O)[C@H](Cc2c[nH]c3ncccc23)NC(=O)[C@H]([C@@H](C)O)NC(=O)[C@@H]2CCCN2C(=O)[C@H](Cc2ccc(O)cc2)NC(=O)[C@H](C(C)(C)C)NC1=O` [Compound 181] (Ac-C[Tle]YPT[Trp(7-aza)][Thp]AY[αMeV]TC-NH2; linker 1-12 via mXylylene), the half-inhibitory concentration (IC50) in assay [1] was 21 to 50 µM; at PCSK9, 1 to 21 µM.

The record behind these values is patent US11814444B2, “Cyclic polypeptides for PCSK9 inhibition” (Ra Pharmaceuticals, Inc., priority 2018, dated 2023).
